Data published in ChEMBL document CHEMBL4680368, “Myeloid Cell Leukemia-1 Inhibitors as Emerging Cancer Treatment” (ACS Med Chem Lett, 2021).

How the values were obtained:
[1] = Induction of apoptosis in human MOLP8 cells assessed as increase in caspase 3/7 activation incubated for 2 hrs by luminometric caspase-glo 3/7 assay; type: functional, cell-based; settings: MOLP-8, 2 h
[2] = target: Induced myeloid leukemia cell differentiation protein Mcl-1 (Homo sapiens, UniProt Q07820); experiment: Inhibition of Terbium-labeled BIM BH3 peptide binding to MCL1 (unknown origin) incubated for 60 mins by HTRF assay
Induced myeloid leukemia cell differentiation protein Mcl-1, sequence (Q07820 whole entry): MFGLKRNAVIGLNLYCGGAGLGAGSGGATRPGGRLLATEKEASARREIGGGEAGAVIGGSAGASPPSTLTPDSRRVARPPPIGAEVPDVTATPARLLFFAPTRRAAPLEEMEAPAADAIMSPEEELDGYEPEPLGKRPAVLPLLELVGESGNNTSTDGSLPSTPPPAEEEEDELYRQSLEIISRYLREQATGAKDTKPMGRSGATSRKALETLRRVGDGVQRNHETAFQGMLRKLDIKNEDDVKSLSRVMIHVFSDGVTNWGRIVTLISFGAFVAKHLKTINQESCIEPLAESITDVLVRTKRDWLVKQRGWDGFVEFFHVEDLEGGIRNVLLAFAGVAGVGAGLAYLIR

Compound	AC50 [1]	Ki [2]
C[C@@H]1[C@@H](C)C/C=C(\F)[C@H](CO)N2CC[C@H]2CN2C[C@@]3(CCCc4cc(Cl)ccc43)COc3ccc(cc32)C(=O)NS1(=O)=O	144 nM	–
C[C@@H]1[C@@H](C)C/C=C(\F)[C@H](COc2ccccn2)N2CC[C@H]2CN2C[C@@]3(CCCc4cc(Cl)ccc43)COc3ccc(cc32)C(=O)NS1(=O)=O	1490 nM	–
C[C@@H]1[C@@H](C)C/C=C(\F)CN2CC[C@H]2CN2C[C@@]3(CCCc4cc(Cl)ccc43)COc3ccc(cc32)C(=O)NS1(=O)=O	692 nM	0.84 nM
COC[C@H]1/C(F)=C/C[C@H](C)[C@@H](C)S(=O)(=O)NC(=O)c2ccc3c(c2)N(C[C@@H]2CCN21)C[C@@]1(CCCc2cc(Cl)ccc21)CO3	181 nM	–
C[C@@H]1[C@@H](C)C/C=C(\F)[C@H](CN2CCN3CCOC[C@@H]3C2)N2CC[C@H]2CN2C[C@@]3(CCCc4cc(Cl)ccc43)COc3ccc(cc32)C(=O)NS1(=O)=O	120 nM	–
C[C@@H]1[C@@H](C)C/C=C(\F)[C@H](COCC(=O)O)N2CC[C@H]2CN2C[C@@]3(CCCc4cc(Cl)ccc43)COc3ccc(cc32)C(=O)NS1(=O)=O	5990 nM	–
COCCOCC1(COCCOC)/C(F)=C/C[C@H](C)[C@@H](C)S(=O)(=O)NC(=O)c2ccc3c(c2)N(C[C@@H]2CCN21)C[C@@]1(CCCc2cc(Cl)ccc21)CO3	152 nM	0.25 nM
C[C@@H]1[C@@H](C)C/C=C(\F)[C@H](COCCCN2CCOCC2)N2CC[C@H]2CN2C[C@@]3(CCCc4cc(Cl)ccc43)COc3ccc(cc32)C(=O)NS1(=O)=O	231 nM	–
C[C@@H]1[C@@H](C)C/C=C(\F)C(CO)(CO)N2CC[C@H]2CN2C[C@@]3(CCCc4cc(Cl)ccc43)COc3ccc(cc32)C(=O)NS1(=O)=O	2390 nM	–
COCCCOC[C@H]1/C(F)=C/C[C@H](C)[C@@H](C)S(=O)(=O)NC(=O)c2ccc3c(c2)N(C[C@@H]2CCN21)C[C@@]1(CCCc2cc(Cl)ccc21)CO3	274 nM	–
